Active and inactive are the calls of the source.

Drawing on ChEMBL document CHEMBL1201862, “PubChem BioAssay data set” (2004), this text covers IC50, EC50 and AC50 for six compounds.

Data set [1] in a line: MIN6 cell viability loss – mouse insulinoma, cytotoxicity control, dose response (AID 2122).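 Note: confirmatory high-throughput counterscreen run to flag cytotoxic compounds.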 Format: functional.
Data set [2] in a line: alpha-synuclein stem-loop luciferase translation blockers – H4 neuroglioma cells, luminescence, confirmation (AID 1988). In kind it is functional, cell-based.
The target of data set [3] is Latent membrane protein 1 (Human herpesvirus 4 (strain B95-8), UniProt P03230). Description: LMP1 TES1 pathway selectivity over dsRED control – imaging, HEK293T, dual-color eGFP/dsRED, cherry-picks, selectivity assay for LMP1 NF-kB inhibitor project, dose response (AID 588398). Format: functional, cell-based.
Sequence of Latent membrane protein 1 (P03230 whole entry): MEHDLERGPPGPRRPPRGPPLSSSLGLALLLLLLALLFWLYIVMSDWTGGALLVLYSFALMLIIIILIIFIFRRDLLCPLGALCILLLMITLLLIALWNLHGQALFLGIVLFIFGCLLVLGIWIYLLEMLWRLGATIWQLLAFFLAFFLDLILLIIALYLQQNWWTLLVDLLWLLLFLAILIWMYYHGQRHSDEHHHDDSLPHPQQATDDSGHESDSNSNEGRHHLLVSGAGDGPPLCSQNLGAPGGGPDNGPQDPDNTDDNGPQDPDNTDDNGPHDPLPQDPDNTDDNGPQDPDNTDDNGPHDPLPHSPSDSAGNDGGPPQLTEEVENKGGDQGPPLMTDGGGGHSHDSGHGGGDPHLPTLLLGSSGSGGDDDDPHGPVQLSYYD
A short description of data set [4]: Luminescence Cell-Based Dose Response HTS to Identify Inhibitors of 5'UTR Stem-Loop Driven Prion Protein mRNA Translation in H4 Neuroglioblastoma Cells. [Related pubchem assays: 1827 (Project Summary), 1813 (Primary HTS)]. Format: functional.
The nature of data set [5]: decrease of insulin promoter-GFP reporter – imaging, high-content screening, mouse beta cells (AID 1628). In kind it is functional. The note with it: MIN6.
Data set [6] concerns the target T1, Heat shock factor protein 1 (Mus musculus, UniProt P38532).
T1 sequence (P38532 whole entry): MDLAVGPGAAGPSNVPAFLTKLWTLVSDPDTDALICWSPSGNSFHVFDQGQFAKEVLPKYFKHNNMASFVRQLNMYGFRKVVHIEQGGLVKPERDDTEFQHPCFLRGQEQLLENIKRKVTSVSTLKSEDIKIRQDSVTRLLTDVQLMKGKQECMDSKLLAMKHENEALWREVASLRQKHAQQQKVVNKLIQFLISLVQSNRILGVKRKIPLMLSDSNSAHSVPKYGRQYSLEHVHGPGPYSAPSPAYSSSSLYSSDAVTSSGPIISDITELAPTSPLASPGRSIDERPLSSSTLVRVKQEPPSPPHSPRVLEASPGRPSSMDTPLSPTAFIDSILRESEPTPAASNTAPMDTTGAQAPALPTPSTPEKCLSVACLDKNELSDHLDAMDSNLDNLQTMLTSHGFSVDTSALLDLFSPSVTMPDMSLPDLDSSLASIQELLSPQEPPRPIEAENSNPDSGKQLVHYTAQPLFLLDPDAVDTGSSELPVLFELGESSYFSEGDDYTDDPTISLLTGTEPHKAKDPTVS
Description: decrease of HSF1-responsive luciferase luminescence – cell-based, NIH3T3, dose retest, confirmation (AID 2382).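 Note: NIH3T3 fibroblasts with HSF1-driven luciferase reporter stressed by proteasome inhibitor MG132; luminescence from HSF1-driven luciferase expression after 8 hours of MG132 stress.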 In kind it is functional.

Data set [7] in a line: luciferase reporter signal suppression in cells – H4 neuroglioma cells, luminescence, dose response (AID 1990). In kind it is functional, cell-based.
The subject of another data set is INS1. Description: INS-1E survival protection against cytokine death – cell-based, luminescence, retest, dose response (AID 449756).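 Note: cell death triggered by IL-1 beta plus TNF-alpha plus IFN-gamma mixture; protective hits raise ATP signal compared with cytokine alone wells.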 Format: functional. The note with it: Rattus norvegicus.
A further data set relates to HEK293. Description: EBV LMP1 TES2 canonical NF-kB signalling blockers – cell-based, HEK293, luciferase, cherry-pick, dose response (AID 588343). The note with it: Homo sapiens. In kind it is functional.
Data set [8] deals with Beta-2 adrenergic receptor (Homo sapiens, UniProt P07550). Description: ADRB2 activation measured by internalization – cell-based, FAP fluorogen, flow cytometry, cherry pick 1, dose response (AID 588763). Format: functional.
Sequence of Beta-2 adrenergic receptor (P07550 whole entry): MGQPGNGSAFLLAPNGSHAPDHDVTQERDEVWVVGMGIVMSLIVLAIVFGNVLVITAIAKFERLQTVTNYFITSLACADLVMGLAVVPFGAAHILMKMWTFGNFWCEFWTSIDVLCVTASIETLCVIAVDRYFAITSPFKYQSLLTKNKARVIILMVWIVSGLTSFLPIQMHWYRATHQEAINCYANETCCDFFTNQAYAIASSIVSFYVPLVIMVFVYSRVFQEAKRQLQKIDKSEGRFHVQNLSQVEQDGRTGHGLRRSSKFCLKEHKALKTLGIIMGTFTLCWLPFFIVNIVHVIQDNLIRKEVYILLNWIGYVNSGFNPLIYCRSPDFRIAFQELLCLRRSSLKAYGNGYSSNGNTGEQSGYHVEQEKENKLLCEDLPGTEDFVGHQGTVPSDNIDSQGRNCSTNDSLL
The target of data set [9] is T2, Corticotropin-releasing factor receptor 2/Corticotropin-releasing factor-binding protein (Homo sapiens, UniProt P24387+Q13324).
T2 sequence (Q13324 whole entry): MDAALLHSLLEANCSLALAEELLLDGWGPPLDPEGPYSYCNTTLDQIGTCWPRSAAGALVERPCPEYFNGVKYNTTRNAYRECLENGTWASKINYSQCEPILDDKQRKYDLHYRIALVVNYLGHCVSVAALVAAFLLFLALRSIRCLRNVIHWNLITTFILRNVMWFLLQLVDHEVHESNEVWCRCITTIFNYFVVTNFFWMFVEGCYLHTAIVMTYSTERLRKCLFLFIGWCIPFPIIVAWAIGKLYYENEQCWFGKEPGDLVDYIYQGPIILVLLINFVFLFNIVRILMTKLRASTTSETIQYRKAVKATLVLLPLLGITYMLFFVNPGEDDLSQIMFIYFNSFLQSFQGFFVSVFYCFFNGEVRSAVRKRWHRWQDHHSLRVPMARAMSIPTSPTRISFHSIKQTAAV
T2 sequence (P24387 whole entry): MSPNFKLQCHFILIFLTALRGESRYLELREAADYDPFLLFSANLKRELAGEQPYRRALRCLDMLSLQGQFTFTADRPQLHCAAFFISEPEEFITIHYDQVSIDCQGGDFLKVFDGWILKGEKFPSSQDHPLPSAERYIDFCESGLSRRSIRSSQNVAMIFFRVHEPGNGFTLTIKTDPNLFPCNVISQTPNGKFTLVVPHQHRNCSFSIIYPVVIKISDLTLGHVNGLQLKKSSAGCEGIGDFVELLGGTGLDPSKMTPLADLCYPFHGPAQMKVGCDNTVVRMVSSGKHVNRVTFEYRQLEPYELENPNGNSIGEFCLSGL
Nature of the data set: activators of CRF receptor 2 with binding protein – uHTS hits, confirmation (AID 602473). The note with it: read-out: EC50_Mean. Format: functional.

For another data set, the target named is T3, Hexokinase HKDC1 (Homo sapiens, UniProt Q2TB90).
T3 sequence (Q2TB90 whole entry): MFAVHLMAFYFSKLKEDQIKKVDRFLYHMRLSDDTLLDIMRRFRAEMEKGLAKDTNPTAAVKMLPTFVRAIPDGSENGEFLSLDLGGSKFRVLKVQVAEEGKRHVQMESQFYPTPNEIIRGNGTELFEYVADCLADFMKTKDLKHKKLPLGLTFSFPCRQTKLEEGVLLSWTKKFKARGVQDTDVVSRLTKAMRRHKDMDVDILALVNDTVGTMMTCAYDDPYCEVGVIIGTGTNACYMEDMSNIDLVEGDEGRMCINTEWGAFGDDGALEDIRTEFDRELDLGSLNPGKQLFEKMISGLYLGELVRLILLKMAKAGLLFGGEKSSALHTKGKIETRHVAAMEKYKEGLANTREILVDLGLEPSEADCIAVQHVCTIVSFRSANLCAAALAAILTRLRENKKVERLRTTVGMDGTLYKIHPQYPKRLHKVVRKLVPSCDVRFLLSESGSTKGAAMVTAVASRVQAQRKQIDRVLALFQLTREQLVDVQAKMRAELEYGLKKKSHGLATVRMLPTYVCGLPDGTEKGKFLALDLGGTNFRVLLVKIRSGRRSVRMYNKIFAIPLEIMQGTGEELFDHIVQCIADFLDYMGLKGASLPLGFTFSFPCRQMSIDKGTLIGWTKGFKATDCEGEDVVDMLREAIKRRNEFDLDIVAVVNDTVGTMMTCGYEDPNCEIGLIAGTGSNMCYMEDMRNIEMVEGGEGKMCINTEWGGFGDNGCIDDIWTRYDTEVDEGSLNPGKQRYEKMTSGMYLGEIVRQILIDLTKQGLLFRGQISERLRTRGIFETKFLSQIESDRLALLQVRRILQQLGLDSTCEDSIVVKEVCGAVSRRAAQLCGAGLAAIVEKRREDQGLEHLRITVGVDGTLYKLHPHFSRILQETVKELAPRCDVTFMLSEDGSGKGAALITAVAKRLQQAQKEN
Description: SAR analysis of small molecule inhibitors of hexokinase domain containing I (HKDC1). [Related pubchem assays (depositor defined):AID493160, AID493190]. In kind it is functional.

The next data set has as its target T4, Hexokinase-1 (Homo sapiens, UniProt P19367).
T4 sequence (P19367 whole entry): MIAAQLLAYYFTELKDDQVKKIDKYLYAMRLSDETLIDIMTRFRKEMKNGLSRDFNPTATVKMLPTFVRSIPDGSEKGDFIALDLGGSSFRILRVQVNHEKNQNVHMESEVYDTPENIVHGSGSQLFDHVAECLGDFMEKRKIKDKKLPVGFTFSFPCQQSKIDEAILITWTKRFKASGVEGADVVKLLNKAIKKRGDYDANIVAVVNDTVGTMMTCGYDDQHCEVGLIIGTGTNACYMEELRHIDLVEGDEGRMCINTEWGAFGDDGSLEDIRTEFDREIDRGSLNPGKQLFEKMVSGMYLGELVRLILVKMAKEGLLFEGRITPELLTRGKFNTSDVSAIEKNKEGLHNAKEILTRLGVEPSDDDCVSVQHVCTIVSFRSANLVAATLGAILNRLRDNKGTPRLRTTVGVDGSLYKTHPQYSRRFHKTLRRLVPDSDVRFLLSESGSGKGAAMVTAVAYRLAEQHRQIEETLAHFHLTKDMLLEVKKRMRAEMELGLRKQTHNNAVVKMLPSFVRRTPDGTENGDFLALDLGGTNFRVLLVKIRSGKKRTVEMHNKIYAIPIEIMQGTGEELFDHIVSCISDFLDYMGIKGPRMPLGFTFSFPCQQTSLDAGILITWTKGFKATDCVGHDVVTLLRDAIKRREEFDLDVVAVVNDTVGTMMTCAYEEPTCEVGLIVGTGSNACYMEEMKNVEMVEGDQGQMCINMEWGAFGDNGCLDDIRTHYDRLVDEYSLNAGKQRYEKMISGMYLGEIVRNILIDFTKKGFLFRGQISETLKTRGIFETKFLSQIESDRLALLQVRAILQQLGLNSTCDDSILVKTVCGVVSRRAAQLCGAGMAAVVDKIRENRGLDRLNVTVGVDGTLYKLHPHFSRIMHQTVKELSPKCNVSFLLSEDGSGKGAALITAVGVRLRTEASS
Nature of the data set: SAR analysis of small molecule inhibitors of hexokinase domain containing I (HKDC1) in the hexokinase 1 selectivity assay. [Related pubchem assays (depositor defined):AID493160, AID493190]. In kind it is functional.

Data set [10] is described as follows: cells. In kind it is functional, cell-based.
In another data set the target is Cytochrome P450 2C19 (Homo sapiens, UniProt P33261). Description: Cytochrome panel assay with activity outcomes. Panel member name: p450-cyp2c19 Compounds with AC50 equal or less than 10 uM are considered active. The note with it: read-out: AC50. Format: functional.
Sequence of Cytochrome P450 2C19 (P33261 whole entry): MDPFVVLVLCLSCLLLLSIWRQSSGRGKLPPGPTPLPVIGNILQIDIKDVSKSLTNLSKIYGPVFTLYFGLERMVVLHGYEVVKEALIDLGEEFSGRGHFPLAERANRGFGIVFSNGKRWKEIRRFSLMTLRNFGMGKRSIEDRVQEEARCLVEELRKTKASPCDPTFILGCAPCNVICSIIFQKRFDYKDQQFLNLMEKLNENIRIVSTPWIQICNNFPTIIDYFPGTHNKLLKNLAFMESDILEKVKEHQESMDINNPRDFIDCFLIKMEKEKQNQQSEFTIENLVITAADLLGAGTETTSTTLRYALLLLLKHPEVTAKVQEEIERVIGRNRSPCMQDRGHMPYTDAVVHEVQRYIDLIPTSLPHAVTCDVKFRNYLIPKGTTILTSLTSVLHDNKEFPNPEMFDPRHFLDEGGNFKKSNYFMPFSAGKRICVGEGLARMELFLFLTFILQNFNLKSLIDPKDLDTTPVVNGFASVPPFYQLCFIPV
Another data set has as its target Cytochrome P450 2D6 (Homo sapiens, UniProt P10635).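 Note: CYP2D6 member of a cytochrome P450 panel assay.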
A short description of data set [11]: cells. In kind it is functional, cell-based. This is another data set of the same source.
The target in another data set is Beta-galactosidase (Escherichia coli, UniProt Q8VNN2). Description: PubChem AID 485352. In kind it is functional.
Sequence of Beta-galactosidase (Q8VNN2 whole entry): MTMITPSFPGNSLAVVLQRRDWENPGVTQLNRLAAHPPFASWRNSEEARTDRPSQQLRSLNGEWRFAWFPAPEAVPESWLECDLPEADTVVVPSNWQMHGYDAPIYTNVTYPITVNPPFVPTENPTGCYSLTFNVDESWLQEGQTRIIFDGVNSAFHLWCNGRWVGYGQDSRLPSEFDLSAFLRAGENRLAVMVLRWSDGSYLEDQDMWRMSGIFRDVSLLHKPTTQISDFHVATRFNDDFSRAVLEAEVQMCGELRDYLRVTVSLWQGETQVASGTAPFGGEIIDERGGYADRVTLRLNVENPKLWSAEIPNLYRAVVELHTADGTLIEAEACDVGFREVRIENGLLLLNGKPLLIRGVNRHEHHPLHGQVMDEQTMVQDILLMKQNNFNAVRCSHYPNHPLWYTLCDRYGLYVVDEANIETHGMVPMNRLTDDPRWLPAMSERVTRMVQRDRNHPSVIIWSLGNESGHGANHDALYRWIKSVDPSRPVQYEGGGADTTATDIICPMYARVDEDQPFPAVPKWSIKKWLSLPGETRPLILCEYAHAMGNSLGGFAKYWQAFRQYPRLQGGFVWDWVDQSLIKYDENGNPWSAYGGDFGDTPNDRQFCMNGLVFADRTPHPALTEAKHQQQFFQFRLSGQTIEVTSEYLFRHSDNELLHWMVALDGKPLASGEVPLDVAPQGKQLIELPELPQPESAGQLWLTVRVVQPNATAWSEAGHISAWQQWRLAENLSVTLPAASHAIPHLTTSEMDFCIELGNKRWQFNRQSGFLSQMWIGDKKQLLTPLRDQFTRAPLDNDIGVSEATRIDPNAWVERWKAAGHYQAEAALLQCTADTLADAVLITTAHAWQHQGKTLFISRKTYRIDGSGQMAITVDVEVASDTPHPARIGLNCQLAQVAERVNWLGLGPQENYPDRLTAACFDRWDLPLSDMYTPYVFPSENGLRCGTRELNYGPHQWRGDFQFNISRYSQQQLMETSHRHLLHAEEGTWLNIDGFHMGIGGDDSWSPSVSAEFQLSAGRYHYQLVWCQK
For a further data set, the target named is T5, Protein skinhead-1 (Caenorhabditis elegans, UniProt P34707).
T5 sequence (P34707 whole entry): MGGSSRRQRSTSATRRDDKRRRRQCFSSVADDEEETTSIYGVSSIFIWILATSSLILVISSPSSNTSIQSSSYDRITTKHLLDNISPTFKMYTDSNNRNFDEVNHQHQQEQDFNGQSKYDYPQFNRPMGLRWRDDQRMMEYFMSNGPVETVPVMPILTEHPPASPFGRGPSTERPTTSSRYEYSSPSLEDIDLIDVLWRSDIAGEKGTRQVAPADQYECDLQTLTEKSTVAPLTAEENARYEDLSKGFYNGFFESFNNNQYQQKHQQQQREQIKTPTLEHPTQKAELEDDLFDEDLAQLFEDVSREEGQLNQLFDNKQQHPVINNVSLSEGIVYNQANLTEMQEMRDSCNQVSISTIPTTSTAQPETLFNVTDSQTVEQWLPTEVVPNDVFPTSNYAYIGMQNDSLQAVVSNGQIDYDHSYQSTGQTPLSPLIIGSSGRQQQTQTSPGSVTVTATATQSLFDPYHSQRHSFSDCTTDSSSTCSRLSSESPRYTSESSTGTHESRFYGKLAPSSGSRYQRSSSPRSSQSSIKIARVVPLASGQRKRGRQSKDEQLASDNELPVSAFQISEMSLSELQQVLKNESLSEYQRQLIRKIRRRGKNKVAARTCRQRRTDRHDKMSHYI
In kind it is functional.

In data set [12] the target is T6, Type-1 angiotensin II receptor (Homo sapiens, UniProt P30556).
T6 sequence (P30556 whole entry): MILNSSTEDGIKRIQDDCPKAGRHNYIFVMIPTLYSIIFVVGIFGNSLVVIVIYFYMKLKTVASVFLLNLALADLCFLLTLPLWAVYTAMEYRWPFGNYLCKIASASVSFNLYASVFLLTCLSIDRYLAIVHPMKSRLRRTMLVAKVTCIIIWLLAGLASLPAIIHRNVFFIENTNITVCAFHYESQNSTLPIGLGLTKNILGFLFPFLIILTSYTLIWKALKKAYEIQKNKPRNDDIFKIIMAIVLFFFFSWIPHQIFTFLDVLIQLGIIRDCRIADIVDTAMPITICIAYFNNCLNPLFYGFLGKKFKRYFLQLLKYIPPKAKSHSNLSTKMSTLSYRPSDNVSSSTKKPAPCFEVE
Description: antagonism of angiotensin II type 1 receptor – cell-based, uHTS hits, selectivity assay for APJ receptor antagonist project, dose response (AID 463214).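 Note: antagonist potency against angiotensin II stimulated AT1 response.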 In kind it is functional.

Sequence of Cytochrome P450 2D6 (P10635 whole entry): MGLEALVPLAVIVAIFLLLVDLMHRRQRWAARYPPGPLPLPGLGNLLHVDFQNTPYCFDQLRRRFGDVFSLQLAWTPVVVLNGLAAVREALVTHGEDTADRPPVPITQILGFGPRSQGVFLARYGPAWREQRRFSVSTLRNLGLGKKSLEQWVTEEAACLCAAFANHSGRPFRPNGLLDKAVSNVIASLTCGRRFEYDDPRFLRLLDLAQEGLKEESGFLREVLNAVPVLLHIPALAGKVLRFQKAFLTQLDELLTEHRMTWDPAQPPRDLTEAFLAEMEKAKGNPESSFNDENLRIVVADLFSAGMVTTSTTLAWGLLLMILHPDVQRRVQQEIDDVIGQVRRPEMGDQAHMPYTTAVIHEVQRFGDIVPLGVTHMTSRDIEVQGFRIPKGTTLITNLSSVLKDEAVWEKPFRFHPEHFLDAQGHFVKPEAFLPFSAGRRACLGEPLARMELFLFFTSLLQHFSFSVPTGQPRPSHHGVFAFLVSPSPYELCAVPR

`O=C(N/N=C/c1ccc[nH]1)c1ccc(COc2cccc3cccnc23)cc1`: the IC50 – broadly, the concentration that gives 50% inhibition – in data set [1] was 0.574 µM (active); in [5] it was 0.65 µM (active). Further, the EC50 in data set [2] is 9.79 µM (active); in data set [4], > 120 µM (not active); in [6], 0.16 µM (active); in data set [7], 8.34 µM (active). Besides, the AC50 (commonly the midpoint of the concentration-response curve, whichever way the signal moves) in [3] is 9.15 µM (active); with INS1, 1.05 µM (active); in the data set with HEK293 it was 6.13 µM (active).
Turning to `C=CCn1c(CCNC(=O)c2cccs2)nnc1SCC(=O)c1cccc([N+](=O)[O-])c1`, the EC50 in data set [8] was 0.133 µM (active).
As to `O=c1c([N+](=O)[O-])cn(Cc2ccccc2)c(=O)n1Cc1ccccc1`, the EC50 in [9] was > 53 µM (inactive). Moreover, the half-maximal activity concentration (AC50) in [3] was 108 µM (active).
`Cc1ccc(/C=C/c2nc3ccccc3c(=O)n2CCc2ccccc2)cc1`: the IC50 on Hexokinase HKDC1 and at Hexokinase-1 was > 80 µM (inactive) throughout.
With `COc1ccccc1-c1cc(C(F)(F)F)nc(S(=O)(=O)CCCC(=O)NC(C)C)n1`, the EC50 was 51.6 µM (active) in the data set “cells [10]”, 9.33 µM (active) in [8] and > 350 µM (not active) in the data set “cells [11]”. The concentration at half-maximal activity (AC50) at Cytochrome P450 2C19 is 6.31 µM (inconclusive); at Cytochrome P450 2D6, “inconclusive”.
As to `Cc1ccccc1NC(=O)CCC(=O)OCC(=O)c1cccc([N+](=O)[O-])c1`, the EC50 on Beta-galactosidase is > 40 µM (inactive). For the same compound, the IC50 at Protein skinhead-1 is > 100 µM (inactive); in [12], 33.6 µM (not active).
